Where two headings read alike, the source gives them in different places.
What was measured:
[1] = test system: HT29 colorectal carcinoma; experiment: qHTS cell viability screen (Cell Titer Glo), HT29; assay type: cell-based; conditions: HT29 colorectal carcinoma, 72 hours, cell viability Cell Titer Glo, read-out: CC50 HT29
[2] = test system: PC3 prostate cancer cell line; experiment: qHTS cell viability screen (Cell Titer Glo), PC3; assay type: cell-based; conditions: PC3 prostate, 72 hours, cell viability Cell Titer Glo, read-out: CC50 PC3
[3] = test system: MDA-MB-231 breast cancer cell line; experiment: qHTS cell viability screen (Cell Titer Glo), MDA-MB-231; assay type: cell-based; conditions: MDA-MB-231 breast, 96 hours, cell viability Cell Titer Glo, read-out: CC50 MDA-MB-231
[4] = test system: BJ cells, normal human foreskin fibroblast cell line; experiment: BJ cell cytotoxicity counter screen; conditions: read-out: EC50 BJ (cytotoxicity); BJ normal human foreskin fibroblasts; confidence intervals in parentheses
Excerpt: (§1) Most analogs in the presented series are lipophilic while also containing a positively charged amine. Lipophilic basic amines can accumulate in cell membranes if their lipophilic atom groups form favorable non-polar contacts with lipid chains while their charged amine is interacting with fatty acid head groups. Such association with lipids can lead to cytotoxicity through membrane destabilization. Therefore, we evaluated a number of representative compounds against BJ cells, a normal human foreskin fibroblast cell line, where cytotoxicity was determined at 10 µM drug concentration, as described previously.
(§2) minimum locked at 0 and 100 respectively.
(§3) children with ALL in relapse.
(§4) foreskin fibroblast cell line (BJ).
(§5) Table 2. […] SSA: Sulindac sulfide

[5] = BJ cell cytotoxicity counter screen; conditions: human, BJ cells (normal human foreskin fibroblast cell line)
Excerpt: as §1, §2, §3, §4, §5

[6] = test system: REH cells (precursor B-cell ALL); experiment: Additional cancer cell line panel, REH; assay type: cell-based, human; conditions: Homo sapiens, REH; confidence intervals in parentheses; NA: not active; read-out: EC50 REH

| melting point | EC50 [6] | Compound | CC50 [1] | CC50 [2] | CC50 [3] | EC50 [4] | CC50 ([1]; Homo sapiens, HT-29, 72 h) | CC50 ([2]; 72 h) | CC50 ([3]; Homo sapiens, MDA-MB-231, 96 h) | EC50 [5] |
| --- | --- | --- | --- | --- | --- | --- | --- | --- | --- | --- |
|  |  | CSc1ccc(/C=C2/C(C)=C(CCNCc3ccccc3)c3cc(F)ccc32)cc1 [Compound 7] | 21.8 ± 2.29 µM | > 50 µM | 46.5 ± 1.92 µM | > 7.57 µM |  |  |  |  |
|  |  | CSc1ccc(/C=C2/C(C)=C(CCNCc3ccco3)c3cc(F)ccc32)cc1 [Compound 8] | 4.27 ± 0.33 µM | 9.94 ± 0.77 µM | 7.77 ± 0.54 µM | > 7.57 µM |  |  |  |  |
|  |  | CSc1ccc(/C=C2/C(C)=C(CCNCCN3CCCCC3)c3cc(F)ccc32)cc1 [Compound 9] | 1.81 ± 0.06 µM | 4.78 ± 0.2 µM | 3.73 ± 0.21 µM | > 7.57 µM |  |  |  |  |
|  |  | CSc1ccc(/C=C2/C(C)=C(CCNCCN(C)C)c3cc(F)ccc32)cc1 [Compound 10] |  |  |  |  | 1.97 ± 0.18 µM | 4.38 ± 0.25 µM | 3.42 ± 1.5 µM |  |
|  |  | CC1=C(CCNCc2ccccc2)c2cc(F)ccc2/C1=C\c1ccc([S+](C)[O-])cc1 (stereo not drawn) [Compound 11] |  |  |  |  | 15.1 ± 1.42 µM | 41.5 ± 5 µM | 48.6 ± 7.85 µM |  |
| 96 to 98 °C |  | CC1=C(CCNCc2ccccc2)c2cc(F)ccc2/C1=C\c1ccc(S(C)(=O)=O)cc1 [Compound 12] |  |  |  |  | 3.39 ± 0.28 µM | 7.02 ± 0.48 µM | 4.52 ± 0.77 µM |  |
|  |  | CSc1ccc(/C=C2/C(C)=C(CCN)c3cc(F)ccc32)cc1 [Compound 13] |  |  |  |  | 4.05 ± 0.16 µM | 7.46 ± 0.46 µM | 7.2 ± 0.29 µM | > 7.57 µM |
| 168 to 170 °C |  | CSc1ccc(/C=C2/C(C)=C(CCNC(=O)c3ccco3)c3cc(F)ccc32)cc1 [Compound 14] |  |  |  |  | 9.24 ± 1.18 µM | 8.92 ± 0.83 µM | 16.8 ± 3.2 µM | > 7.57 µM |
|  |  | CSc1ccc(/C=C2/C(C)=C(CN)c3cc(F)ccc32)cc1 [Compound 16] |  |  |  |  | 16 ± 6.08 µM | 33.6 ± 6.59 µM | 19.3 ± 2.12 µM |  |
| 108 to 110 °C |  | COc1cc(/C=C2/C(C)=C(CN)c3cc(F)ccc32)cc(OC)c1OC [Compound 17] |  |  |  |  | 14.6 ± 2.42 µM | 29.7 ± 4.49 µM | 15.3 ± 4.44 µM |  |
|  |  | CSc1ccc(/C=C2/C(C)=C(CNC(=O)Cc3ccccc3)c3cc(F)ccc32)cc1 [Compound 18] |  |  |  |  | 3.56 ± 1.25 µM | 18.9 ± 9.71 µM | 4.06 ± 1.97 µM |  |
|  |  | CSc1ccc(/C=C2/C(C)=C(CNC(=O)c3ccco3)c3cc(F)ccc32)cc1 [Compound 19] | 33.2 ± 3.43 µM | 39.8 ± 6.81 µM | 41.2 ± 7.6 µM |  |  |  |  |  |
|  |  | CSc1ccc(/C=C2/C(C)=C(CNC(=O)CN)c3cc(F)ccc32)cc1 [Compound 21] | 5.49 ± 0.21 µM | 7.27 ± 0.31 µM | 7.3 ± 0.62 µM | > 22.7 µM |  |  |  |  |
| 146 to 148 °C |  | CSc1ccc(/C=C2/C(C)=C(CNC(=O)[C@@H](N)CO)c3cc(F)ccc32)cc1 [Compound 22] |  |  |  |  | 5.98 ± 0.24 µM | 6.03 ± 0.41 µM | 7.43 ± 0.87 µM | > 22.7 µM |
|  | 150 µM | CSc1ccc(/C=C2/C(C)=C(CNC(=O)[C@@H]3CCCN3)c3cc(F)ccc32)cc1 [Compound 25] |  |  |  |  | 3.15 ± 0.17 µM | 6.66 ± 0.42 µM | 4.35 ± 0.19 µM | > 22.7 µM |
|  |  | COc1cc(/C=C2/C(C)=C(CNC(=O)c3ccco3)c3cc(F)ccc32)cc(OC)c1OC [Compound 27] | > 50 µM | > 50 µM | > 50 µM |  |  |  |  |  |
| 183 to 185 °C |  | COc1cc(/C=C2/C(C)=C(CNC(C)=O)c3cc(F)ccc32)cc(OC)c1OC [Compound 28] |  |  |  |  | 6.44 ± 1.4 µM | 23.3 ± 2.61 µM | 5.77 ± 1.55 µM |  |
| 159 to 160 °C |  | CSc1ccc(/C=C2/C(C)=C(CNS(C)(=O)=O)c3cc(F)ccc32)cc1 [Compound 34] |  |  |  |  | 7.43 ± 0.48 µM | 20.2 ± 3.2 µM | 9.06 ± 2.26 µM | > 22.7 µM |
| 131 to 133 °C |  | CCS(=O)(=O)NCC1=C(C)/C(=C/c2ccc(SC)cc2)c2ccc(F)cc21 [Compound 35] |  |  |  |  | 8.33 ± 1.64 µM | 22.6 ± 3.25 µM | 11.9 ± 2.61 µM |  |
| 141 to 143 °C |  | CSc1ccc(/C=C2/C(C)=C(CNS(=O)(=O)c3ccccc3)c3cc(F)ccc32)cc1 [Compound 36] |  |  |  |  | 9.94 ± 0.83 µM | 39.6 ± 14.8 µM | 17.7 ± 2.1 µM |  |
|  |  | CSc1ccc(/C=C2/C(C)=C(CNS(=O)(=O)c3ccc(C)cc3)c3cc(F)ccc32)cc1 [Compound 37] | 8.08 ± 0.6 µM | > 50 µM | 20.5 ± 5.18 µM |  |  |  |  |  |
